Measured values reported in ChEMBL document CHEMBL1122447, “2-Acetylpyridine thiosemicarbazones. 5. 1-[1-(2-Pyridyl)ethyl]-3-thiosemicarbazides as potential antimalarial agents” (1983).

How the values were obtained:
Plasmodium berghei [1] = experiment: Increased mean survival time in drug-sensitive Plasmodium berghei infected mice (Mus musculus) at 320 mg/kg; cured 2 of 5; format: functional, organism-based; set-up: dose 320 mg/kg
Plasmodium berghei [2] = experiment: Increased mean survival time in drug-sensitive Plasmodium berghei infected mice (Mus musculus) at 80 mg/kg; cures 3 of 5; format: functional, organism-based; set-up: dose 80 mg/kg
Plasmodium berghei [3] = experiment: Increased mean survival time in drug-sensitive Plasmodium berghei infected mice (Mus musculus) at 160 mg/kg; cured 5 of 5; format: functional
Plasmodium berghei [4] = experiment: Increased mean survival time in drug-sensitive Plasmodium berghei infected mice (Mus musculus) at 40 mg/kg; cured 1 of 5; format: functional, organism-based; set-up: dose 40 mg/kg
Plasmodium berghei [5] = experiment: Antimalarial activity against Plasmodium berghei infected mice (Mus musculus) at 320 mg/kg; toxic in 1 of 5; format: functional, organism-based; set-up: dose 320 mg/kg
Plasmodium berghei [6] = experiment: Antimalarial activity against Plasmodium berghei infected mice (Mus musculus) at 640 mg/kg; toxic in 5 of 5; format: functional, organism-based; set-up: dose 640 mg/kg
Plasmodium berghei [7] = experiment: Increased mean survival time in drug-sensitive Plasmodium berghei infected mice (Mus musculus) at 20 mg/kg dose; format: functional

With `CC(N/N=C(\S)N1CCN(c2ccccn2)CC1)c1ccccn1` (configuration not stated) the Survival time (Plasmodium berghei [1]) was “Cured 2 of 5 mice”, the Survival time (Plasmodium berghei [2]) was “Cured 3 of 5 mice” and the Survival time (Plasmodium berghei [3]) was 5 days. The Survival time (Plasmodium berghei [4]) was “Cured 1 of 5 mice”, the Survival time (Plasmodium berghei [5]) was “Toxic in 1 of 5 mice” and the Survival time (Plasmodium berghei [6]) was “Toxic in 5 of 5 mice”. It also gave a Survival time (Plasmodium berghei [7]) of 0.4 days.
